Experiments:
[1] = target: BTK(wt) (Homo sapiens (Human), UniProt Q06187); experiment: In vitro inhibitory activity against BTK(wt) enzyme (33P-ATP filter binding); type: biochemical; conditions: class symbols
Experimental: (§1) The substrate solution was prepared by adding the substrate poly(Glu, Tyr) sodium salt (Sigma Aldrich, St. Louis, Mo.) to the substrate reaction buffer (20 mM Hepes (pH 7.5), 10 mM MgCl2, 1 mM EGTA, 0.02% Brij35, 0.02 mg/mL BSA, 0.1 mM Na3VO4, 2 mM DTT and 1% DMSO) (final substrate concentration in the reaction solution was 0.2 μM). Test compound was formulated into stock solutions at 10 mM concentration with 100% DMSO, and 3-fold serial dilution for 10 doses was performed in a 384-well cyclic olefin copolymer LDV microplate. […] Test compound in 100% DMSO was then added to the kinase reaction mixture by acoustic liquid transfer technology (Echo 550; nanoliter range) (Labcyte Inc, Sunnyvale, Calif.) and incubated for 20 min at room temperature. 33P-ATP (specific activity 10 μCi/μL) was added to the reaction mixture to initiate the reaction, followed by incubation at room temperature for 2 h. A small portion of the reaction mixture was dropped onto P-81 ion exchange filter paper (Whatman). After washing the unbound phosphate from the filter paper with 0.75% phosphate buffer (three times) and drying, the remaining radioactivity on the filter paper was measured. The kinase activity was expressed as the percentage of the remaining kinase activity in the test sample to the kinase activity in the vehicle (dimethyl sulfoxide) blank control. IC50 values were calculated by curve fitting the data obtained using Prism (GraphPad Software).

[2] = target: BTK(C481S) (Homo sapiens (Human), UniProt Q06187, C481S); experiment: In vitro inhibitory activity against BTK(C481S) enzyme (33P-ATP filter binding); type: biochemical; conditions: class symbols; read-out: IC50 BTK(C48IS)
Experimental: as §1

BTK(C481S), sequence (Q06187 whole entry C481S): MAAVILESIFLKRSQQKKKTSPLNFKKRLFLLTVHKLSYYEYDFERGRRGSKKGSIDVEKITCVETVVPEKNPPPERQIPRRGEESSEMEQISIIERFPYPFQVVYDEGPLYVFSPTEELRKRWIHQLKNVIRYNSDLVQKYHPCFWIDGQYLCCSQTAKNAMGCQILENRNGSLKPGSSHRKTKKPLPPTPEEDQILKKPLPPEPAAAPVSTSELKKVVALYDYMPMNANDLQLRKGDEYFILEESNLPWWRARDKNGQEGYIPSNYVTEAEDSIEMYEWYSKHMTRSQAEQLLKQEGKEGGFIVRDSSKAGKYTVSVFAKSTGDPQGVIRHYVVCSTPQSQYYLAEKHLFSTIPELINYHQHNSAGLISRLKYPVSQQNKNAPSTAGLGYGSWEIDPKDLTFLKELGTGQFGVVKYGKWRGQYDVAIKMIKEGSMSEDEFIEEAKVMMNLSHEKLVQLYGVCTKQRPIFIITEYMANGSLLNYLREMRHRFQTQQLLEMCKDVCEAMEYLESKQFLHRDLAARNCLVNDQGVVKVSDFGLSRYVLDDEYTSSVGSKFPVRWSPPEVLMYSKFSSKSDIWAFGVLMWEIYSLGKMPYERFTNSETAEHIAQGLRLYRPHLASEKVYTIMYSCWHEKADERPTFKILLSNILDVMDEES
BTK(wt), sequence (Q06187 whole entry): as the sequence (Q06187 whole entry C481S) above, with S481C counted along it

| SMILES | IC50 [1] [nM] | IC50 [2] [nM] |
| --- | --- | --- |
| CC#CC(=O)NC12CCC(c3nc(-c4ccc(C(=O)Nc5cc(C#N)ccn5)cc4)c4c(N)nccn34)(CC1)C2 [Compound A-7-5, 4-(8-amino-3-(4-(but-2-ynamido)bicyclo[2.2.1]heptan-1-yl)imidazo[1,5-a]pyrazin-1-yl)-N-(4-cyanopyridin-2-yl)benzamide] | 1 to 10 | 0.1 to 1 |
| CC1(C(=O)NC23CCC(c4nc(-c5ccc(C(=O)Nc6cc(C(F)(F)F)ccn6)cc5)c5c(N)nccn45)(CC2)C3)COC1 [Compound A-10-5, N-(4-(8-amino-1-(4-((4-(trifluoromethyl)pyridin-2-yl)carbamoyl)phenyl)imidazo[1,5-a]pyrazin-3-yl)bicyclo[2.2.1]heptan-1-yl)-3-methyloxetane-3-carboxamide] | 1 to 10 | ≤ 0.1 |
| COC/C=C/C(=O)NC12CCC(c3nc(-c4ccc(C(=O)Nc5cc(C(F)(F)F)ccn5)cc4)c4c(N)nccn34)(CC1)C2 [Compound A-10-1, (E)-4-(8-amino-3-(4-(4-methoxybut-2-enamido)bicyclo[2.2.1]heptan-1-yl)imidazo[1,5-a]pyrazin-1-yl)-N-(4-(trifluoromethyl)pyridin-2-yl)benzamide] | 1 to 10 | 0.1 to 1 |
| CC#CC(=O)NC12CCC(c3nc(-c4ccc(Oc5ccccc5)cc4)c4c(N)nccn34)(CC1)C2 [Compound A-7-14, N-(4-(8-amino-1-(4-phenoxyphenyl)imidazo[1,5-a]pyrazin-3-yl)bicyclo[2.2.1]heptan-1-yl)but-2-ynamide] | 1 to 10 | 0.1 to 1 |
| CC#CC(=O)NC12CCC(c3nc(-c4ccc(C(=O)Nc5cc(C(F)(F)F)ccn5)cc4)c4c(N)nccn34)(CC1)C2 [Compound A-7-3, 4-(8-amino-3-(4-(but-2-ynamido)bicyclo[2.2.1]heptan-1-yl)imidazo[1,5-a]pyrazin-1-yl)-N-(4-(trifluoromethyl)pyridin-2-yl)benzamide] | 0.1 to 1 | 0.1 to 1 |
| CC#CC(=O)NC12CCC(c3nc(-c4ccc(CNC(=O)c5cc(F)ccc5OC)cc4)c4c(N)nccn34)(CC1)C2 [Compound A-7-12, N-(4-(8-amino-3-(4-(but-2-ynamido)bicyclo[2.2.1]heptan-1-yl)imidazo[1,5-a]pyrazin-1-yl)benzyl)-5-fluoro-2-methoxybenzamide] | 1 to 10 | 0.1 to 1 |
| CC#CC(=O)NC12CCC(c3nc(-c4ccc(C(=O)Nc5cc(C(F)(F)F)ccn5)cc4F)c4c(N)nccn34)(CC1)C2 [Compound A-7-9, 4-(8-amino-3-(4-(but-2-ynamido)bicyclo[2.2.1]heptan-1-yl)imidazo[1,5-a]pyrazin-1-yl)-3-fluoro-N-(4-(trifluoromethyl)pyridin-2-yl)benzamide] | 1 to 10 | 0.1 to 1 |
| N#CC1(C(=O)NC23CCC(c4nc(-c5ccc(C(=O)Nc6cc(C(F)(F)F)ccn6)cc5)c5c(N)nccn45)(CC2)C3)CC1 [Compound A-10-12, 4-(8-amino-3-(4-(1-cyanocyclopropanecarboxamido)bicyclo[2.2.1]heptan-1-yl)imidazo[1,5-a]pyrazin-1-yl)-N-(4-(trifluoromethyl)pyridin-2-yl)benzamide] | 1 to 10 | 0.1 to 1 |

More lines, now with the values ahead:

| IC50 [1] [nM] | IC50 [2] [nM] | SMILES |
| --- | --- | --- |
| 10 to 50 | 1 to 10 | CC(C)(O)C(=O)NC12CCC(n3cc(-c4ccc(C(=O)Nc5cc(C(F)(F)F)ccn5)cc4)c4c(N)ncnc43)(CC1)C2 [Compound B-6-2, 4-(4-amino-7-(4-(2-hydroxy-2-methylpropanamido)bicyclo[2.2.1]heptan-1-yl)-7H-pyrrolo[2,3-d]pyrimidin-5-yl)-N-(4-(trifluoromethyl)pyridin-2-yl)benzamide] |
| 1 to 10 | 0.1 to 1 | N#CC1(C(=O)NC23CCC(c4nc(-c5ccc(C(=O)Nc6cc(C(F)(F)F)ccn6)cc5)c5c(N)nccn45)(CC2)C3)CCOCC1 [Compound A-10-15, N-(4-(8-amino-1-(4-((4-(trifluoromethyl)pyridin-2-yl)carbamoyl)phenyl)imidazo[1,5-a]pyrazin-3-yl)bicyclo[2.2.1]heptan-1-yl)-4-cyanotetrahydro-2H-pyran-4-carboxamide] |
| 10 to 50 | 1 to 10 | COc1ccccc1C(=O)NC12CCC(c3nc(-c4ccc(C(=O)Nc5cc(C(F)(F)F)ccn5)cc4)c4c(N)nccn34)(CC1)C2 [Compound A-10-20, N-(4-(8-amino-1-(4-((4-(trifluoromethyl)pyridin-2-yl)carbamoyl)phenyl)imidazo[1,5-a]pyrazin-3-yl)bicyclo[2.2.1]heptan-1-yl)-2-methoxybenzamide] |
| 1 to 10 | 1 to 10 | COc1ccc(F)cc1C(=O)NCc1ccc(-c2nc(C34CCC(NC(=O)C5(C)COC5)(CC3)C4)n3ccnc(N)c23)cc1 [Compound A-16-3, N-(4-(8-amino-1-(4-((5-fluoro-2-methoxybenzamido)methyl)phenyl)imidazo[1,5-a]pyrazin-3-yl)bicyclo[2.2.1]heptan-1-yl)-3-methyloxetane-3-carboxamide] |
| 1 to 10 | 1 to 10 | CC(C)(O)C(=O)NC12CCC(c3nc(-c4ccc(Oc5ccccc5)cc4)c4c(N)nccn34)(CC1)C2 [Compound A-13-1, N-(4-(8-amino-1-(4-phenoxyphenyl)imidazo[1,5-a]pyrazin-3-yl)bicyclo[2.2.1]heptan-1-yl)-2-hydroxy-2-methylpropanamide] |
| 1 to 10 | 1 to 10 | COc1ccc(F)cc1C(=O)NCc1ccc(-c2nc(C34CCC(NC(=O)CN5CCOCC5)(CC3)C4)n3ccnc(N)c23)cc1 [Compound A-16-4, N-(4-(8-amino-3-(4-(2-morpholinoacetamido)bicyclo[2.2.1]heptan-1-yl)imidazo[1,5-a]pyrazin-1-yl)benzyl)-5-fluoro-2-methoxybenzamide] |
| 10 to 50 | 1 to 10 | COc1ccc(F)cc1C(=O)NCc1ccc(-c2nc(C34CCC(NC(=O)C(C)(C)O)(CC3)C4)n3ccnc(N)c23)cc1 [Compound A-16-1, N-(4-(8-amino-3-(4-(2-hydroxy-2-methylpropanamido)bicyclo[2.2.1]heptan-1-yl)imidazo[1,5-a]pyrazin-1-yl)benzyl)-5-fluoro-2-methoxybenzamide] |

Source: patent publication US11420975B2, “Substituted imidazo[1,5-a]pyrazines as Bruton's tyrosine kinase inhibitors” (TRANSTHERA SCIENCES (NANJING), INC., priority 2018, dated 2022)
